The subject of series [1] is MDA-MB-468. Put plainly: cells. The series is classed as functional, cell-based. To be noted: Homo sapiens, MDA-MB-468, 72 h.
Description: Antiproliferative activity against human MDA-MB-468 cells assessed inhibition of cell growth incubated for 72 hrs by CCK-8 assay
Series [2] deals with T1, Dual specificity protein kinase TTK (Homo sapiens, UniProt P33981).
T1 sequence (P33981 whole entry): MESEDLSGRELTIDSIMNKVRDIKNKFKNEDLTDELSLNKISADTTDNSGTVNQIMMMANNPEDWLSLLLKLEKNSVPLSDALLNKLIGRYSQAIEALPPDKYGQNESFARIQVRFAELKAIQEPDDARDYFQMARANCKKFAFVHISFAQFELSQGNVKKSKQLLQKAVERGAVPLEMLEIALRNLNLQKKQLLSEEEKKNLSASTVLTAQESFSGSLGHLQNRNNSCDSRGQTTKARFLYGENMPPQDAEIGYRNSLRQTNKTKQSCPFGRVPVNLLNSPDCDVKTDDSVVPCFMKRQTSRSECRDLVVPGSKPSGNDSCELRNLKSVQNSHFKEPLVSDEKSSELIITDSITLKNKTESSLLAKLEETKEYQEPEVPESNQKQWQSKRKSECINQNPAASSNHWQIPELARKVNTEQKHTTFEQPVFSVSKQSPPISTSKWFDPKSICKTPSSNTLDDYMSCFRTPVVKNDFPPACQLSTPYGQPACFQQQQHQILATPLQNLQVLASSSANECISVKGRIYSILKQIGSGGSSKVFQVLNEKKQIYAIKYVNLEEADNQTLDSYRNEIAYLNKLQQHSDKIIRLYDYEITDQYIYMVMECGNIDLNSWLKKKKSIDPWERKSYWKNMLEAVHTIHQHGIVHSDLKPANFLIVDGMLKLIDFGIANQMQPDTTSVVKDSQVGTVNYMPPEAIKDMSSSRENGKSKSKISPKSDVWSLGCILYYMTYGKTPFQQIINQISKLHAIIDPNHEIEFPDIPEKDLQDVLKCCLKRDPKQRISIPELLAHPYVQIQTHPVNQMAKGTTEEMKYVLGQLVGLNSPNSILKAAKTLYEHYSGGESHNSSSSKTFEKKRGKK
The experiment in a line: Inhibition of Mps1 (unknown origin) pretreated for 10 mins followed by substrate addition and measured after 60 mins in presence of ATP by ADP-glo kinase assay. For orientation: In ADP-Glo the light output rises with the ADP produced.

Series [3] in a line: Metabolic stability in human microsome assessed as intrinsic clearance preincubated for 10 mins followed by NADPH addition and measured upto 60 mins by LC-MS/MS analysis. The series is classed as ADME. To be noted: microsomes, time < 70 min.
Series [4] is described as follows: Metabolic stability in human liver microsome assessed as half life preincubated for 10 mins followed by NADPH addition and measured upto 60 mins by LC-MS/MS analysis. The series is classed as ADME. As to conditions: liver microsomes, time < 70 min.
Series [5] in a line: Metabolic stability in human liver microsome assessed as intrinsic clearance preincubated for 10 mins followed by NADPH addition and measured upto 60 mins by LC-MS/MS analysis. The class given is ADME. As to conditions: liver microsomes, time < 70 min, read-out: CLH. A general note: Liver microsomes are a subcellular fraction often used to study metabolism.
Series [6] has as its target T2, Dual specificity protein kinase TTK (Homo sapiens) (UniProt P33981).
T2 sequence (whole entry): T1 sequence (P33981 whole entry)
The experiment in a line: Inhibition of Mps1 (unknown origin) at 1000 nM pretreated for 10 mins followed by substrate addition and measured after 60 mins in presence of ATP by ADP-glo kinase assay relative to control. As to conditions: time 70.0 min.

Series [7] deals with MDA-MB-468. Put plainly: Antiproliferative activity against human MDA-MB-468 cells assessed inhibition of cell growth at 2 uM incubated for 72 hrs by CCK-8 assay relative to control. The series is classed as functional. A general note: Tetrazolium dyes change colour on reduction, which living cells bring about.
Series [8] in a line: Antiproliferative activity against human RBE cells assessed inhibition of cell growth incubated for 72 hrs by CCK-8 assay relative to control. The series is classed as functional.
The subject of series [9] is MDA-MB-231. The experiment in a line: Antiproliferative activity against human MDA-MB-231 cells assessed inhibition of cell growth incubated for 72 hrs by CCK-8 assay. The class given is functional.
In series [10] the test system is MCF7. The experiment in a line: Antiproliferative activity against human MCF7 cells assessed inhibition of cell growth incubated for 72 hrs by CCK-8 assay relative to control. The class given is functional.
Series [11] relates to MV4-11. Put plainly: Antiproliferative activity against human MV4-11 cells assessed inhibition of cell growth incubated for 72 hrs by CCK-8 assay relative to control. The class given is functional.
The target in series [12] is T1, Dual specificity protein kinase TTK. Put plainly: Inhibition of MPS1 (unknown origin).
For series [13], the system named is MDA-MB-468. The experiment in a line: Antitumor activity against human MDA-MB-468 cells xenografted in BALB/c nude mouse assessed as tumor growth inhibition at 30 mg/kg, iv administered once daily for 21 days. As to conditions: MDA-MB-468, 504 h, time 21 day, read-out: TGI. The class given is functional.
In series [14] the test system is HCT-116. Put plainly: Antitumor activity against human HCT-116 cells xenografted in mouse assessed as tumor growth inhibition at 6.5 mg/kg, po. The series is classed as functional. As to conditions: read-out: TGI.

Take `CCc1cccc(CC)c1NC(=O)c1ccn(-c2nc(Nc3ccc(N4CCN(C(C)=O)CC4)cc3OC)nc3[nH]ncc23)c1`: the IC50 in series [1] worked out at 371 nM; in series [2], 4.03 nM.
As for `O=C(O)Cc1ccccc1Nc1c(Cl)cccc1Cl` [DICLOFENAC], the microsomal CLint in series [3] came out at 126 µL/min/mg. The half-life in [4] stood at 11 min. Moreover, the CLint scaled in series [5] was determined as 113 mL/min/kg.
Consider `COc1cc(N2CCN(C(C)=O)CC2)ccc1Nc1nc(OC2CCCC2)c2c(-c3ccc(OC)c(OC)c3)n[nH]c2n1`, for which the inhibition in series [6] turned out to be 51.2%. In series [7], this compound came in with an inhibition at 2 µM of 81.5%. In addition, the “inhibition (INH)” value was determined as 39.75% in [8], 26.44% in [9], 17.16% in series [10] and 8.63% in series [11]. The same compound yielded an IC50 in series [1] of 1000 nM.
The compound `COCCCNC(=O)c1cc(-c2ccc(OC)c(OC)c2)nc2[nH]nc(-c3ccc(OC)cc3)c12` gave an IC50 in series [12] of 391 nM.
As for `COc1cc(N2CCN(C)CC2)ccc1Nc1nc(OC2CCCC2)c2c(-c3ccc(OC)c(OC)c3)n[nH]c2n1`, in series [6], the inhibition was found to be 63.9%. In addition, the inhibition at 2 µM in series [7] amounted to 40.7%. Further, the “inhibition (INH)” value is given as 4.83% in series [8], 24.33% in series [9], 17.07% in series [10] and -3.55% in series [11].
With `COc1cc(N2CCC(N(C)C)CC2)ccc1Nc1nc(OC2CCCC2)c2c(-c3ccc(OC)c(OC)c3)n[nH]c2n1`, in [6], the inhibition turned out to be 84.7%. Testing at 2 µM in series [7] gave an inhibition of 94.3%. The “inhibition (INH)” value in series [8] came out at 36.32%; in series [9] it was 72.16%; in series [10] it was 25.87%; in series [11], 21.89%. The results for the half-inhibitory concentration (IC50) in series [1] and in [2] were 1270 nM and 4.84 nM, respectively.
Take `COc1cc(N2CCOCC2)ccc1Nc1nc(OC2CCCC2)c2c(-c3ccc(OC)c(OC)c3)n[nH]c2n1`: the inhibition in [6] came to 59.9%. Also, in series [7], testing at 2 µM gave an inhibition of 69.7%. The “inhibition (INH)” value in series [8] is recorded as 11.97%; in series [9], 21.19%; in series [10], 10.48%; in series [11], -22.73%. Besides, it took 2090 nM to reach half-maximal inhibition in series [1] (IC50).
With `COc1cc(OC2CCN(C)CC2)ccc1Nc1ncc2c(n1)n(C1CCCC1)c(=O)n2C`, the “inhibition (INH)” value in series [9] was found to be 57.08%. For the same compound, the midpoint of inhibition in series [1], the IC50, lay at 2100 nM.
On to `COc1cc(N2CCN(C)CC2)ccc1Nc1nc(-n2ccc(C(=O)Nc3c(C)cccc3C)c2)c2cn[nH]c2n1`, for which the IC50 in [1] amounted to 857 nM; in [2], 3.81 nM.
Regarding `COc1cc(N2CCC(N(C)C)CC2)ccc1Nc1nc(OC2CCCCC2)c2c(-c3ccc(OC)c(OC)c3)n[nH]c2n1`, in [6], the inhibition is 70.7%. Also, in series [7], the inhibition at 2 µM is 68.5%. Besides, the “inhibition (INH)” value was 28.45% in series [8], 66.51% in series [9], 25.38% in [10] and 20.47% in series [11].
`CCc1cccc(CC)c1N1CCn2cc(-c3nc(Nc4ccc(N5CCOCC5)cc4OC)nc4[nH]ncc34)cc2C1=O`: the values for the IC50 in [1] and in series [2] were 663 nM and 6.14 nM, respectively.
Consider `COc1ccc(Oc2cc(NCCC(F)(F)F)c3ncc(-c4ccc(C(=O)NC5CC5)c(C)c4)n3n2)c(F)c1F` [BAY-1217389], for which, in [9], the “inhibition (INH)” value came out at 61.14%. For the same compound, the inhibition in vivo at 30 mg/kg in [13] came to 67%.
Turning to `C=CC(=O)Nc1cc(N2CCOCC2)ccc1Nc1nc(-c2cc3n(c2)CCN(c2c(CC)cccc2CC)C3=O)c2cn[nH]c2n1`, the IC50 in [1] is 2620 nM; in series [2], more than 1000 nM.
With `Cc1cc(-c2cnn3c(NC[C@H]4C[C@@](C)(O)C4)cc(Oc4cccnc4)nc23)ccc1C(=O)NC1CC1` [LUVIXASERTIB], the inhibition in vivo at 6.5 mg/kg in [14] was 68%.

Broadly, the IC50 is the midpoint of a concentration-inhibition curve. A word on the microsomal CLint: it is the capacity of the preparation to metabolise the compound, expressed as a volume cleared per time. The term half-life denotes the time in which the quantity being followed falls by half. The term inhibition denotes the relative decrease from the control value, in per cent.

(Values after ChEMBL document CHEMBL5360570, “Discovery of pyrazolo[3,4-b]pyridine derivatives as novel and potent Mps1 inhibitors for the treatment of cancer” (Eur J Med Chem, 2023).)
